The values that follow come from the NIST ThermoML archive (doi:10.1016/j.jct.2013.03.008).

The data set in a line: cn = amount concentration of the nth substance listed, in mol/dm3. As to conditions: 313 K, Ring tensiometer.

Numbers after ± are expanded uncertainties.

For the compound `CCCCCCCCCCCC(=O)OCC[N+](C)(C)CCC[N+](C)(C)CCOC(=O)CCCCCCCCCCC.[Br-].[Br-]` + O, under “c1 = 0.000412”, the surface tension liquid-gas is 30.2 ± 0.5 mN/m.

As to `CCCCCCCCCCCCOC(=O)C[N+](C)(C)CCC[N+](C)(C)CC(=O)OCCCCCCCCCCCC.[Br-].[Br-]` + O, the surface tension liquid-gas (c1 = 0.000228) was found to be 27.2 ± 0.4 mN/m.

In the case of `CCCCCCCCCCCCOC(=O)C[N+](C)(C)CC[N+](C)(C)CC(=O)OCCCCCCCCCCCC.[Br-].[Br-]` + O, the surface tension liquid-gas (c1 = 0.000168) came to 26.4 ± 0.4 mN/m.
